Laboratory results: patent US20140031227A1, “HERBICIDAL COMPOSITIONS COMPRISING 4-AMINO-3-CHLORO-5-FLUORO-6-(4-CHLORO-2-FLUORO-3-METHOXYPHENYL) PYRIDINE-2-CARBOXYLIC ACID OR A DERIVATIVE THEREOF AND GLYPHOSATE OR GLUFOSINATE” (DOW AGROSCIENCES LLC, priority 2012, published 2014)
Where a name gives a salt, the structure may show the parent alone.

Columns and labels:
Format in all cases: in vivo
[1] = system: CYPDI (Cyperus difformis L., smallflower umbrella sedge); assay: Example I postemergence foliar-applied mixtures, direct seeded rice weeds, greenhouse: CYPDI
Protocol: Seeds or nutlets of the desired test plant species were planted in a soil matrix prepared by mixing a loam or sandy loam soil (e.g., 28.6 percent silt, 18.8 percent clay, and 52.6 percent sand, with a pH of about 5.8 and an organic matter content of about 1.8 percent) and calcareous grit in an 80 to 20 ratio. The soil matrix was contained in plastic pots with a volume of 1 quart and a surface area of 83.6 square centimeters (cm^2). […] The plants were grown for 8-22 days in a greenhouse with an approximate 14 hr photoperiod which was maintained at about 29° C. during the day and 26° C. during the night. Nutrients (Peters Excel® 15-5-15 5-Ca 2-Mg and iron chelate) were applied in the irrigation solution as needed and water was added on a regular basis. Supplemental lighting was provided with overhead metal halide 1000-Watt lamps as necessary. The plants were employed for testing when they reached the first through fourth true leaf stage.
(§1) Treatments consisted of the acid or esters of 4-amino-3-chloro-5-fluoro-6-(4-chloro-2-fluoro-3-methoxy-phenyl)pyridine-2-carboxylic acid (Compound A), each formulated as an SC (suspension concentrate), and various herbicidal components alone and in combination. Forms of compound A were applied on an acid equivalent basis.
(§2) For treatments comprised of formulated compounds, measured amounts of compounds were placed individually in 25 mL glass vials and diluted in a volume of 1.25% (v/v) Agri-Dex® crop oil concentrated to obtain 12× stock solutions. […] Application solutions were prepared by adding an appropriate amount of each stock solution (e.g., 1 mL) and diluted to the appropriate final concentrations with the addition of 10 mL of an aqueous mixture of 1.25% (v/v) crop oil concentrate so that the final spray solutions contained 1.25+/−0.05% (v/v) crop oil concentrate.
All stock solutions and applications solutions were visually inspected for compound compatibility prior to application. Spray solutions were applied to the plant material with an overhead Mandel track sprayer equipped with a 8002E nozzles calibrated to deliver 187 L/ha over an application area of 0.503 m^2 at a spray height of 18 to 20 inches (46 to 50 cm) above average plant canopy height. Control plants were sprayed in the same manner with the solvent blank.
The treated plants and control plants were placed in a greenhouse as described above and watered by sub-irrigation to prevent wash-off of the test compounds. After approximately 3 weeks, the condition of the test plants as compared with that of the untreated plants was determined visually and scored on a scale of 0 to 100 percent where 0 corresponds to no injury or growth inhibition and 100 corresponds to complete kill. […]

[2] = system: IPOHE (Ipomoea hederacea Jacq., morning glory, ivyleaf); assay: Example IV postemergence foliar-applied mixtures, general weed control, greenhouse: IPOHE
Protocol: (§3) The treated plants and control plants were placed in a greenhouse as described above and watered by sub-irrigation to prevent wash-off of the test compounds. After approximately 3 weeks, the condition of the test plants as compared with that of the untreated plants was determined visually and scored on a scale of 0 to 100 percent where 0 corresponds to no injury or growth inhibition and 100 corresponds to complete kill.
(§4) Colby's equation was used to determine the herbicidal effects expected from the mixtures (Colby, S. R. 1967. Calculation of the synergistic and antagonistic response of herbicide combinations. Weeds 15:20-22.) .
(§5) The following equation was used to calculate the expected activity of mixtures containing two active ingredients, A and B:
(§6) A=observed efficacy of active ingredient A at the same concentration as used in the mixture.
(§7) B=observed efficacy of active ingredient B at the same concentration as used in the mixture.

[3] = system: ECHCG (Echinochloa crusgalli (L.) Beauv., barnyardgrass); assay: Example IV postemergence foliar-applied mixtures, general weed control, greenhouse: ECHCG
Protocol: as §3, §4, §5, §6, §7

[4] = system: CIRAR (Cirsium arvense (L.) Scop., Canada thistle); assay: Example IV postemergence foliar-applied mixtures, general weed control, greenhouse: CIRAR (Table 17, species inferred from b27)
Protocol: (§8) Seeds or nutlets of the desired test plant species were planted in Sun Gro Metro-Mix® 360 planting mixture, which typically has a pH of 6.0 to 6.8 and an organic matter content of about 30 percent, in plastic pots with a surface area of 84.6 square centimeters (cm^2). […] The plants were grown for 7-31 days (d) in a greenhouse with an approximate 15 hour (h) photoperiod which was maintained at about 23-29° C. during the day and 22-28° C. during the night. Nutrients (Peters Excel® 15-5-15 5-Ca 2-Mg) and water were added on a regular basis and supplemental lighting was provided with overhead metal halide 1000-Watt lamps as necessary. The plants were employed for testing when they reached the first, second, or third true leaf stage.
as §1, with “the benzyl ester” for “esters”, “SC,” for “SC (suspension concentrate),”
(§9) Other herbicidal components were applied on an acid equivalent or active ingredient basis and included the 5-enolpyruvylshikimate-3-phosphate synthase (EPSPS)-inhibiting herbicide, glyphosate dimethylamine salt, formulated as Durango DMA® and the glutamine synthase (GS)-inhibiting herbicide, glufosinate ammonium, formulated as Ignite® 280.
as §2, with “(v/v) Agri-dex” for “(v/v) Agri-Dex®”, “solution (typically” for “solution (e.g.,”, “(v/v) Agri-dex” for “(v/v)”, “contained 1.25%” for “contained 1.25+/−0.05%”
(§10) All stock solutions and applications solutions were visually inspected for compound compatibility prior to application. Compound requirements are based upon a 12 mL application volume at a rate of 187 liters per hectare (L/ha). Formulated compounds were applied to the plant material with an overhead Mandel track sprayer equipped with 8002E nozzles calibrated to deliver 187 L/ha over an application area of 0.503 square meters (m^2) at a spray height of 18 to 20 inches (46 to 50 cm) above the average plant canopy height. Control plants were sprayed in the same manner with the solvent blank.
as §3, §4

[5] = system: SETFA (Setaria faberi Herrm., giant foxtail); assay: Example IV postemergence foliar-applied mixtures, general weed control, greenhouse: SETFA
Protocol: as §8
as §1, with “the benzyl ester” for “esters”, “SC,” for “SC (suspension concentrate),”
as §9
as §2, with “(v/v) Agri-dex” for “(v/v) Agri-Dex®”, “solution (typically” for “solution (e.g.,”, “(v/v) Agri-dex” for “(v/v)”, “contained 1.25%” for “contained 1.25+/−0.05%”
as §10, §3, §4

[6] = system: CYPES (Cyperus esculentus L., yellow nutsedge); assay: Example IV postemergence foliar-applied mixtures, general weed control, greenhouse: CYPES
Protocol: as §8
as §1, with “the benzyl ester” for “esters”, “SC,” for “SC (suspension concentrate),”
as §9
as §2, with “(v/v) Agri-dex” for “(v/v) Agri-Dex®”, “solution (typically” for “solution (e.g.,”, “(v/v) Agri-dex” for “(v/v)”, “contained 1.25%” for “contained 1.25+/−0.05%”
as §10, §3, §4

[7] = system: CHEAL (Chenopodium album L., common lambsquarters); assay: Example IV postemergence foliar-applied mixtures, general weed control, greenhouse: CHEAL
Protocol: as §8
as §1, with “the benzyl ester” for “esters”, “SC,” for “SC (suspension concentrate),”
as §9
as §2, with “(v/v) Agri-dex” for “(v/v) Agri-Dex®”, “solution (typically” for “solution (e.g.,”, “(v/v) Agri-dex” for “(v/v)”, “contained 1.25%” for “contained 1.25+/−0.05%”
as §10, §3, §4

[8] = Compound A Benzyl Ester 2 gae/ha alone
[9] = Compound A Benzyl Ester 4 gae/ha alone
[10] = Compound A Benzyl Ester 8 gae/ha alone
[11] = Compound A Benzyl Ester 16 gae/ha alone
[12] = Compound A Benzyl Ester 32 gae/ha alone
[13] = Compound A Benzyl Ester 2 gae/ha alone, 18 DAA
[14] = Compound A Benzyl Ester 4 gae/ha alone, 18 DAA
[15] = Compound A Benzyl Ester 8 gae/ha alone, 18 DAA
[16] = Compound A Benzyl Ester alone, 2 gae/ha
[17] = Compound A Benzyl Ester alone, 4 gae/ha
[18] = Glufosinate ammonium salt 112.5 gai/ha alone
[19] = Glufosinate ammonium salt 225 gai/ha alone
[20] = Glufosinate ammonium salt 450 gai/ha alone
[21] = Glufosinate ammonium salt 450 gai/ha alone, 18 DAA
[22] = Glufosinate ammonium salt 112.5 gai/ha alone, 18 DAA
[23] = Glufosinate ammonium salt 225 gai/ha alone, 18 DAA

## COc1c(Cl)ccc(-c2nc(C(=O)O)c(Cl)c(N)c2F)c1F [Compound A Acid, 4-amino-3-chloro-6-(4-chloro-2-fluoro-3-methoxyphenyl)-5-fluoropyridine-2-carboxylic acid]
[1]; Compound A Acid alone, 4.38 gae/ha
  Visual Weed Control (%) - 21 DAA CYPDI Obs: 50%
[1]; Compound A Acid alone, 8.75 gae/ha
  Visual Weed Control (%) - 21 DAA CYPDI Obs: 85%

## COc1c(Cl)ccc(-c2nc(C(=O)OCc3ccccc3)c(Cl)c(N)c2F)c1F [Compound A Benzyl Ester]
[2]; [8]
  Visual Weed Control (%) - 18 DAA IPOHE Obs: 15%
[2]; [9]
  Visual Weed Control (%) - 18 DAA IPOHE Obs: 25%
[2]; [10]
  Visual Weed Control (%) - 18 DAA IPOHE Obs: 25%
[2]; [11]
  Visual Weed Control (%) - 18 DAA IPOHE Obs: 35%
[2]; [12]
  Visual Weed Control (%) - 18 DAA IPOHE Obs: 45%
[3]; [10]
  Visual Weed Control (%) - 18 DAA ECHCG Obs: 40%
[4]; [8]
  Visual Weed Control (%) - 18 DAA CIRAR Obs: 60%
[4]; [9]
  Visual Weed Control (%) - 18 DAA CIRAR Obs: 70%
[4]; [10]
  Visual Weed Control (%) - 18 DAA CIRAR Obs: 80%
[4]; [11]
  Visual Weed Control (%) - 18 DAA CIRAR Obs: 85%
[4]; [12]
  Visual Weed Control (%) - 18 DAA CIRAR Obs: 90%
[5]; [13]
  VisualWeed Control (%) - 18 DAA SETFA Obs: 40%
[5]; [14]
  VisualWeed Control (%) - 18 DAA SETFA Obs: 40%
[5]; [15]
  VisualWeed Control (%) - 18 DAA SETFA Obs: 75%
[5]; Compound A Benzyl Ester 16 gae/ha alone, 18 DAA
  VisualWeed Control (%) - 18 DAA SETFA Obs: 85%
[5]; Compound A Benzyl Ester 32 gae/ha alone, 18 DAA
  VisualWeed Control (%) - 18 DAA SETFA Obs: 90%
[5]; [16]
  VisualWeed Control (%) - 18 DAA SETFA Obs: 40%
[5]; [17]
  VisualWeed Control (%) - 18 DAA SETFA Obs: 40%
[6]; [13]
  Visual Weed Control (%) - 18 DAA CYPES Obs: 40%
[6]; [14]
  Visual Weed Control (%) - 18 DAA CYPES Obs: 75%
[6]; [15]
  Visual Weed Control (%) - 18 DAA CYPES Obs: 80%
[6]; [16]
  Visual Weed Control (%) - 18 DAA CYPES Obs: 40%
[7]; [13]
  Visual Weed Control (%) - 18 DAA CHEAL Obs: 50%
[7]; [14]
  Visual Weed Control (%) - 18 DAA CHEAL Obs: 70%
[7]; [15]
  Visual Weed Control (%) - 18 DAA CHEAL Obs: 90%
[7]; [16]
  Visual Weed Control (%) - 18 DAA CHEAL Obs: 50%
[7]; [17]
  Visual Weed Control (%) - 18 DAA CHEAL Obs: 70%
[7]; Compound A Benzyl Ester alone, 8 gae/ha
  Visual Weed Control (%) - 18 DAA CHEAL Obs: 90%
[7]; Compound A Benzyl Ester alone, 16 gae/ha
  Visual Weed Control (%) - 18 DAA CHEAL Obs: 95%
[7]; Compound A Benzyl Ester alone, 32 gae/ha
  Visual Weed Control (%) - 18 DAA CHEAL Obs: 99%

## CP(=O)(O)CCC(N)C(=O)O (stereo not drawn) [Glufosinate ammonium salt, 2-amino-4-(hydroxymethylphosphinyl)butanoic acid monoammonium salt, reference compound]
[2]; [18]
  Visual Weed Control (%) - 18 DAA IPOHE Obs: 10%
[2]; [19]
  Visual Weed Control (%) - 18 DAA IPOHE Obs: 20%
[2]; [20]
  Visual Weed Control (%) - 18 DAA IPOHE Obs: 50%
[1]; glufosinate ammonium alone, 135.5 gae/ha
  Visual Weed Control (%) - 21 DAA CYPDI Obs: 0%
[1]; glufosinate ammonium alone, 271 gae/ha
  Visual Weed Control (%) - 21 DAA CYPDI Obs: 0%
[3]; [18]
  Visual Weed Control (%) - 18 DAA ECHCG Obs: 0%
[3]; [19]
  Visual Weed Control (%) - 18 DAA ECHCG Obs: 0%
[3]; [20]
  Visual Weed Control (%) - 18 DAA ECHCG Obs: 10%
[4]; [19]
  Visual Weed Control (%) - 18 DAA CIRAR Obs: 15%
[5]; [21]
  VisualWeed Control (%) - 18 DAA SETFA Obs: 60%
[6]; [22]
  Visual Weed Control (%) - 18 DAA CYPES Obs: 0%
[6]; [23]
  Visual Weed Control (%) - 18 DAA CYPES Obs: 0%
[6]; [21]
  Visual Weed Control (%) - 18 DAA CYPES Obs: 0%
[7]; [22]
  Visual Weed Control (%) - 18 DAA CHEAL Obs: 0%
[7]; [23]
  Visual Weed Control (%) - 18 DAA CHEAL Obs: 10%
[7]; [21]
  Visual Weed Control (%) - 18 DAA CHEAL Obs: 30%
